Data published in patent US20240025906A1 (NEURON23, INC., priority 2022, published 2024).
Read-outs that look alike come from different tables or passages of the source.

What was measured:
[1] = system: Psoriasis patients; details: humans; TYK2 inhibitor; background statement citing Armstrong et al, Ann of Rheu Dis, 2020; cited from earlier work
[2] = system: JAK1/TYK2 pSTAT5 (Tyr694/699) in THP-1 cell line; assay: IFNa-stimulated JAK1/TYK2 pSTAT5 (Tyr694/699) inhibition cellular assay, AlphaLISA; format: cell-based; details: Homo sapiens, THP-1 cells, AlphaLISA (Assay B)
Method in brief: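 Compound dilutions were dispensed first, and HBSS-suspended THP-1 cells were added on top (final top concentration 10000 nM, 6-fold series). After 1 h at 37 °C, IFNa (100 ng/mL as added) was applied for 30 min. Cells were then lysed and pSTAT5 was quantified by AlphaLISA.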

[3] = target: T1, TYK2 JH2 (Homo sapiens, UniProt P29597); assay: TYK2 JH2 binding assay (KINOMEscan KdELECT competitive binding); details: TYK2 JH2 domain
T1 construct: purchased DiscoverX (KINOMEscan KdELECT service); host or cells: E. coli BL21-derived (T7 phage display) or HEK-293
T1 sequence (P29597 589-875 limits assumed): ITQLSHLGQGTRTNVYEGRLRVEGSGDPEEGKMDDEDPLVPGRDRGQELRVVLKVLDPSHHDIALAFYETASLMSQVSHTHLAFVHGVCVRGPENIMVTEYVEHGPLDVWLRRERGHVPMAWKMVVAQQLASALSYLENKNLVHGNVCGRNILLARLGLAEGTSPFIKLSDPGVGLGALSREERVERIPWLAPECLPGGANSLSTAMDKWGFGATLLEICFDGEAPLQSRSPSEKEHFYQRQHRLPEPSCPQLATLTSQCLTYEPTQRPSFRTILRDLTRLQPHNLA
Method in brief: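 The assay measures displacement of DNA- or phage-tagged TYK2 pseudokinase domain from an affinity resin; compound binding lowers the amount captured, read by qPCR. Incubation lasts 1 h at room temperature.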

[4] = IFNa-stimulated, read-out: Cellular THP1_IFNa-pSTATS_IC50
[5] = KINOMEscan KdELECT (Assay A), read-out: Biochemical TYK2_JH2_Kd

For deucravacitinib, the “efficacy in Psoriasis patients” value [1] is listed as “efficacy”.
Work on `CNc1ncc(-c2ccc(-n3cccn3)cc2)c2cc(NC(=O)C3CC3)ncc12` [Example 166, N-(5-(4-(1H-pyrazol-1-yl)phenyl)-8-(methylamino)-2,7-naphthyridin-3-yl)cyclopropanecarboxamide] yielded an IC50 [2, 4] of over 500 nM and a Kd [3, 5] of at most 100 nM.
`CNc1ncc(-c2nccs2)c2cc(NC(=O)C3CC3)ncc12` [Example 63, N-(8-(methylamino)-5-(thiazol-2-yl)-2,7-naphthyridin-3-yl)cyclopropanecarboxamide] showed an IC50 [2, 4] of over 500 nM and a Kd [3, 5] of at most 100 nM.
Molecule `CNc1ncc(-c2nc3cc(N4CCOCC4)ccc3o2)c2cc(NC(=O)[C@H]3CC3(F)F)ncc12` [Example 422, (R)-2,2-difluoro-N-(8-(methylamino)-5-(5-morpholinobenzo[d]oxazol-2-y1)-2,7-naphthyridin-3-yl)cyclopropane-1-carboxamide] has an IC50 ([2]; IFNa-stimulated, read-out: Cellular_THP1_IFNa-pSTATS_TYK2) of at most 500 nM and a Kd ([3]; DiscoverX KINOMEscan KdELECT (Assay A), read-out: Biochemical TYK2_DiscoverX_JH2_BND_Kd) of at most 100 nM.
Work on `CNc1ncc(-c2nc3ccc(N4CCOC(CCCO)C4)cn3n2)c2cc(NC(=O)C3CC3)ncc12` (stereo not drawn) [Example 1053] yielded an IC50 ([2]; IFNa-stimulated pSTAT5 (Tyr694/699), read-out: Cellular_THP1_IFNa-pSTATS_TYK2) of at most 500 nM and a Kd ([3]; KINOMEscan KdELECT (Assay A), read-out: Biochemical TYK2_DiscoverX_JH2_BND_Kd) of at most 100 nM.
